Measurements: article PMC6522510 (Nature Communications, 2019)
Where two headings read alike, the source gives them in different places.

Experiments:
Experiment in all cases: cells
Design in all cases: species or system AML cell lines (8); Secondary HTS, 10-point dose-response in triplicate, Cell Titer Glo viability, four-parameter fit EC50
U937 = details: Homo sapiens, read-out: U937
CMS = details: read-out: CMS
M07e = details: M-07e, read-out: M07e
MOLM-13 = details: Homo sapiens, read-out: MOLM-13
CHRF288-11 = details: read-out: CHRF288-11
MV4-11 = details: Homo sapiens, read-out: MV4-11
CMK = details: Homo sapiens, read-out: CMK
ML-2 = details: Homo sapiens, read-out: ML-2

EC50 (U937; U-937, 72 h) | EC50 (MOLM-13; MOLM-13, 72 h) | EC50 (MV4-11; MV4-11, 72 h) | SMILES | EC50 (CMS; 72 h) | EC50 (M07e; 72 h) | EC50 (CHRF288-11; 72 h) | EC50 (CMK; CMK, 72 h) | EC50 (ML-2; ML-2, 72 h) | EC50 (U937; U-937, 72 h cell viability) | EC50 (CMS; 72 h cell viability) | EC50 (M07e; 72 h cell viability) | EC50 (MOLM-13; 72 h cell viability) | EC50 (CHRF288-11; 72 h cell viability) | EC50 (MV4-11; 72 h cell viability) | EC50 (CMK; 72 h cell viability) | EC50 (ML-2; 72 h cell viability)
> 10 µM | > 10 µM | > 10 µM | Cc1nn(C)c(C)c1C(=O)N1CCN(Cc2nc3ccccc3n2CC(C)(C)C)CC1 [SJ000796025, FTASE INHIBITOR III] | > 10 µM | > 10 µM | > 10 µM | 3.1 µM | > 10 µM | – | – | – | – | – | – | – | –
> 10 µM | 0.021 µM | 0.0098 µM | COC1=C2C[C@@H](C)C[C@H](OC)[C@H](O)[C@@H](C)/C=C(\C)[C@H](OC(N)=O)[C@@H](OC)/C=C\C=C(/C)C(=O)NC(=CC1=O)C2=O [SJ000796035, GELDANOMYCIN] | > 10 µM | > 10 µM | > 10 µM | > 10 µM | > 10 µM | – | – | – | – | – | – | – | –
> 10 µM | > 10 µM | > 10 µM | COc1ccc(/C=C/c2ccccc2F)cc1 [SJ000796052, CAY10512] | > 10 µM | > 10 µM | > 10 µM | > 10 µM | > 10 µM | – | – | – | – | – | – | – | –
> 10 µM | > 10 µM | > 10 µM | COC(=O)[C@H](CCSC)NC(=O)c1ccc(NC[C@@H](N)CS)cc1-c1ccccc1 [SJ000803699, FTI-277] | > 10 µM | > 10 µM | > 10 µM | > 10 µM | > 10 µM | – | – | – | – | – | – | – | –
> 10 µM | 2.5 µM | 5 µM | O=C(c1cn(Cc2cncn2Cc2ccc(Br)cc2)cc1-c1cccc2ccccc12)N1CCOCC1 [SJ000803701, LB 42708] | 3.4 µM | > 10 µM | > 10 µM | > 10 µM | 2.3 µM | – | – | – | – | – | – | – | –
2 µM | > 10 µM | > 10 µM | CSCC[C@@H](NC(=O)c1ccc(CNCc2cnc[nH]2)cc1-c1ccccc1C)C(=O)OCc1ccccc1 [SJ000803709, FTI-2628] | > 10 µM | > 10 µM | > 10 µM | > 10 µM | > 10 µM | – | – | – | – | – | – | – | –
2.7 µM | > 10 µM | > 10 µM | CSCC[C@H](NC(=O)c1ccc(NC(=O)[C@@H](N)CS)cc1)C(=O)O [SJ000803714, H-CYS-4-ABZ-MET-OH] | > 10 µM | > 10 µM | > 10 µM | > 10 µM | > 10 µM | – | – | – | – | – | – | – | –
> 10 µM | 1.1 µM | > 10 µM | COC(=O)[C@H](CC(C)C)NC(=O)c1ccc(NCc2cnc[nH]2)cc1-c1cccc2ccccc12 [SJ000803715, GGTI-2147] | > 10 µM | > 10 µM | > 10 µM | > 10 µM | > 10 µM | – | – | – | – | – | – | – | –
> 10 µM | 8 µM | > 10 µM | Cc1cc(C(C)Nc2ccccc2)c2nc(N3CCOCC3)cc(=O)n2c1 (stereo not drawn) [SJ000803731, TGX-221] | > 10 µM | > 10 µM | > 10 µM | > 10 µM | > 10 µM | – | – | – | – | – | – | – | –
1.5 µM | > 10 µM | > 10 µM | O=C(c1ccc(Nc2nccc(-c3cc4ccccc4s3)n2)cc1)N1CCC(N2CCCC2)CC1 [SJ000806482, IKK 16] | 0.45 µM | 4.4 µM | 1 µM | 2.8 µM | 0.42 µM | – | – | – | – | – | – | – | –
> 10 µM | 0.11 µM | 0.071 µM | CCc1c(O)cc(O)c(C(=O)c2ccc(OCCN3CCOCC3)c(OC)c2)c1CC(=O)N(CCOC)CCOC [SJ000821566, KW-2478] | > 10 µM | > 10 µM | 6.3 µM | 4.4 µM | 0.16 µM | – | – | – | – | – | – | – | –
> 10 µM | 0.019 µM | 0.023 µM | CC(C)NCCCn1c(Sc2cc3c(cc2I)OCO3)nc2c(N)ncnc21 [SJ000821568, PU-H71] | 0.18 µM | > 10 µM | 0.17 µM | 0.024 µM | 0.082 µM | – | – | – | – | – | – | – | –
> 10 µM | > 10 µM | > 10 µM | Cc1cc(I)ccc1Nc1c(C(=O)NOCC2CC2)cc(F)c(F)c1F [SJ000821584, PD 198306] | > 10 µM | > 10 µM | > 10 µM | > 10 µM | > 10 µM | – | – | – | – | – | – | – | –
6.2 µM | > 10 µM | > 10 µM | CNC(=O)c1c(F)cccc1Nc1nc(Nc2cc3c(ccn3C(=O)CN(C)C)cc2OC)nc2[nH]ccc12 [SJ000821585, GSK1838705A] | > 10 µM | > 10 µM | > 10 µM | 5.8 µM | > 10 µM | – | – | – | – | – | – | – | –

The next lines start with the compound.

SMILES | EC50 (U937; U-937, 72 h) | EC50 (MOLM-13; MOLM-13, 72 h) | EC50 (MV4-11; MV4-11, 72 h) | EC50 (CMS; 72 h) | EC50 (M07e; 72 h) | EC50 (CHRF288-11; 72 h) | EC50 (CMK; CMK, 72 h) | EC50 (ML-2; ML-2, 72 h) | EC50 (U937; U-937, 72 h cell viability) | EC50 (CMS; 72 h cell viability) | EC50 (M07e; 72 h cell viability) | EC50 (MOLM-13; 72 h cell viability) | EC50 (CHRF288-11; 72 h cell viability) | EC50 (MV4-11; 72 h cell viability) | EC50 (CMK; 72 h cell viability) | EC50 (ML-2; 72 h cell viability)
CC(C)(O)[C@@H]1CC[C@](C)([C@H]2[C@@H](O)C[C@@]3(C)[C@@H]4C[C@H](O[C@@H]5O[C@H](CO)[C@@H](O)[C@H](O)[C@H]5O)[C@H]5C(C)(C)[C@@H](O[C@@H]6OC[C@@H](O)[C@H](O)[C@H]6O)CC[C@@]56C[C@@]46CC[C@]23C)O1 [SJ000785909, ASTRAGALOSIDE IV] | > 10 µM | 4.3 µM | > 10 µM | > 10 µM | > 10 µM | 0.81 µM | > 10 µM | 0.87 µM | – | – | – | – | – | – | – | –
C[C@@H]1NC(=O)[C@H]2CCCN2C(=O)[C@H](CCCCCC(=O)[C@@H]2CO2)NC(=O)[C@@H](C)NC1=O [SJ000785910, HC TOXIN] | – | – | – | – | – | – | – | – | 0.032 µM | 0.029 µM | 0.021 µM | 0.15 µM | 0.05 µM | > 10 µM | > 10 µM | 0.11 µM
O=C(NC(NC(=S)Nc1ccc(F)c([N+](=O)[O-])c1)C(Cl)(Cl)Cl)C(c1ccccc1)c1ccccc1 (stereo not drawn) [SJ000786007, CGK 733] | > 10 µM | > 10 µM | > 10 µM | > 10 µM | > 10 µM | > 10 µM | > 10 µM | > 10 µM | – | – | – | – | – | – | – | –
Cc1cc2nc(NCCCO)n(CC(=O)c3cc(C(C)(C)C)c(O)c(C(C)(C)C)c3)c2cc1C [SJ000786025, CID-2858522] | > 10 µM | > 10 µM | > 10 µM | > 10 µM | > 10 µM | > 10 µM | > 10 µM | > 10 µM | – | – | – | – | – | – | – | –
N[C@H](CCC(=O)N[C@@H](Cc1c[nH]c2ccccc12)C(=O)O)C(=O)O [SJ000795988, GOLOTIMOD] | > 10 µM | > 10 µM | > 10 µM | > 10 µM | > 10 µM | > 10 µM | > 10 µM | > 10 µM | – | – | – | – | – | – | – | –
Cc1ccc(C(=O)COC(=O)c2cccc(NC(=O)c3ccc([N+](=O)[O-])cc3[N+](=O)[O-])c2)cc1 [SJ000796012, FM19G11] | > 10 µM | > 10 µM | > 10 µM | > 10 µM | > 10 µM | > 10 µM | > 10 µM | > 10 µM | – | – | – | – | – | – | – | –
CC(C)Oc1ccc(-c2cnc3c(-c4ccnc5ccccc45)cnn3c2)cc1 [SJ000796016, DMH-1] | > 10 µM | 0.0063 µM | > 10 µM | > 10 µM | > 10 µM | > 10 µM | > 10 µM | > 10 µM | – | – | – | – | – | – | – | –
CCNC(=O)c1cc2c(-c3cc(OCCN4CCCC4)c(Cl)cc3Cl)nc(N)nc2s1 [SJ000796085, NVP-BEP800] | 0.15 µM | 0.087 µM | 0.11 µM | 0.4 µM | > 10 µM | 0.43 µM | 0.19 µM | 0.21 µM | – | – | – | – | – | – | – | –
CSCC[C@H](NC(=O)[C@H](Cc1ccccc1)NC[C@@H](NC[C@@H](N)CS)C(C)C)C(=O)O [SJ000803726, FTASE INHIBITOR I] | > 10 µM | > 10 µM | > 10 µM | > 10 µM | > 10 µM | > 10 µM | > 10 µM | > 10 µM | – | – | – | – | – | – | – | –
Cc1c(N)nc([C@H](CC(N)=O)NC[C@H](N)C(N)=O)nc1C(=O)N[C@H](C(=O)N[C@H](C)[C@@H](O)[C@H](C)C(=O)N[C@H](C(=O)NCCc1nc(-c2nc(C(=O)NCCC[S+](C)C)cs2)cs1)[C@@H](C)O)[C@@H](OC1OC(CO)C(O)C(O)C1OC1OC(CO)C(O)C(OC(N)=O)C1O)c1cnc[nH]1 (stereo partly drawn) [SJ000804032, BLEOMYCIN] | > 10 µM | 6.9 µM | > 10 µM | > 10 µM | > 10 µM | > 10 µM | > 10 µM | > 10 µM | – | – | – | – | – | – | – | –
